Consider three molecules from patent US6376510B1, “Neuromuscular relaxants” (Newlaxant LLC, priority 1997, dated 2002).

The subject of data set [1] is anesthetized rats (evoked responses of anterior tibial muscle). In words: In vivo neuromuscular block and cardiovascular side effects, anesthetized rat (Example 8, Table 3). Conditions: for ED50: Rattus norvegicus, iv; for VB (vagal block) / ΔBP (change in arterial blood pressure) / ΔH (change in heart rate) / RI (recovery index) / Onset: rat; for VB (vagal block) / ΔBP (change in arterial blood pressure) / ΔH (change in heart rate): at 80-85% neuromuscular blocking dose; for RI (recovery index): spontaneous recovery, 25-75% neuromuscular response; for Onset: time to 80-85% neuromuscular block. The text has this:
The neuromuscular blocking activity and other effects (e.g. cardiovascular side effects) of selected agents were investigated on several different experimental animals. Justification for this approach lies in the commonly known fact that the pharmacodynamic and pharmacokinetic properties of these agents are markedly variable from species to species. Therefore, the most important aspects of the projected therapeutic utility of these agents, e.g., neuromuscular blocking potency, onset and duration of action, and side effects cannot be ascertained in “in vitro” preparations or by using only one species of animals.
a) Adult, male albino rats were anesthetized with pentobarbital injected intraperitoneally. The trachea was cannulated for artificial respiration via a small animal respirator. The carotid artery was cannulated for recording blood pressure via a transducer and heart rate by a cardiotachograph on a polygraph. One external jugular vein was cannulated for i.v. drug administration. Neuromuscular function was monitored by electromyography, recording evoked responses from the anterior tibial muscle as a result of supramaximal nerve stimuli consisting of single or “train-of-four” rectangular pulses of 0.1-0.2 msec duration every 10-12 seconds, delivered to the sciatic or common peroneal nerve by a laboratory nerve stimulator. Another mode of stimulation included repeated single stimuli delivered at 0.1 Hz or 1 Hz. […] The agents were dissolved in physiologic saline and injected intravenously at appropriate time intervals. The intensity, onset, and duration of neuromuscular block and its type were determined with each agent. Through administering several doses, the doses corresponding to 50%, 80% and 90% neuromuscular block were determined. All agents were compared with selected standard neuromuscular blocking compounds, e.g. succinylcholine, pancuronium, mivacurium, or rocuronium.
Onset=time in minutes to 80-85% neuromuscular block.
RI=recovery index, minutes, spontaneous recovery, 25-75% neuromuscular response.
VB=vagal block, %, at 80-85% neuromuscular blocking dose.
ΔHR=change in heart rate, %, at 80-85% neuromuscular blocking dose.
ΔBP=change in arterial blood pressure, %, at 80-85% neuromuscular blocking dose.

Data set [2] deals with anesthetized juvenile pigs. In words: animal or person. Type of data set: in vivo. Conditions: pig; for ED50: Sus scrofa, intravenous dose causing 50% neuromuscular block, read-out: ED50; for VB (vagal block) / ΔBP (change in arterial blood pressure) / ΔH (change in heart rate): at 80-85% neuromuscular blocking dose; for RI (recovery index): spontaneous recovery, 25-75% neuromuscular response; for Onset: time to 80-85% neuromuscular block. The text has this:
Both electromyographic and mechanomyographic responses can be quantified.
The techniques described under a) and b) were employed in other species as needed with the modification that juvenile pigs were initially anesthetized with inhalation of halothane (Table 5) and monkeys were initially sedated with intramuscular ketamine injections prior to inducing and maintaining general anesthesia using pentobarbital and propofol administered intravenously (Table 6).

The subject of the next data set is rabbits. In words: In vivo neuromuscular block and cardiovascular side effects, rabbit (Example 8, Table 7). Conditions: for ED50: Oryctolagus cuniculus, intravenous dose causing 50% neuromuscular block, read-out: ED50; for ΔBP (change in arterial blood pressure) / ΔH (change in heart rate): at 80-85% neuromuscular blocking dose; for RI (recovery index): spontaneous recovery, 25-75% neuromuscular response; for Onset: time to 80-85% neuromuscular block.

As to `CCC(=O)Oc1ccc(C[N+]2(C)[C@@H]3CC[C@H]2C[C@@H](OC(=O)CCCCC(=O)O[C@H]2C[C@H]4CC[C@@H](C2)[N+]4(C)Cc2ccc(OC(=O)CC)c(OC(=O)CC)c2)C3)cc1OC(=O)CC.[Br-].[Br-]` (stereo partly drawn) [bis[N-(3,4-dipropionyloxybenzyl)tropanium-3α-yl]adipate dibromide], in data set [1], the 50% effect level (ED50) was put at a dose of 0.217 mg/kg, the “VB (vagal block)” value is 18%, the “ΔBP (change in arterial blood pressure)” value turned out to be 0% and the “ΔH (change in heart rate)” value is on record as 0%. Also, in data set [1], the “RI (recovery index)” value came out at 0.4 min and the Onset is 0.6 min. Further, in data set [2], the ED50 was 0.3 mg/kg, the “VB (vagal block)” value is 65%, the “ΔBP (change in arterial blood pressure)” value is given as 0% and the “ΔH (change in heart rate)” value was found to be 0%. In data set [2], the “RI (recovery index)” value worked out at 0.75 min and the Onset stood at 0.65 min. Besides, in the data set with rabbits, the ED50 was determined as 0.075 mg/kg, the “ΔBP (change in arterial blood pressure)” value was found to be 0%, the “ΔH (change in heart rate)” value is given as 0% and the “RI (recovery index)” value came to 0.65 min. The Onset in the data set on rabbits turned out to be 0.9 min.

With `CCC(=O)Oc1c(OC)cc(C[N+]2(C)[C@@H]3CC[C@H]2C[C@@H](OC(=O)C2CCCC(C(=O)O[C@H]4C[C@H]5CC[C@@H](C4)[N+]5(C)Cc4cc(OC)c(OC(=O)CC)c(OC)c4)C2)C3)cc1OC.[Br-].[Br-]` (stereo partly drawn) [bis[N-(3,5-dimethoxy-4-propionyloxybenzyl)tropanium-3α-yl]cyclohexane-1,3-dicarboxylate dibromide], in data set [1], the ED50 was 0.27 mg/kg, the “VB (vagal block)” value worked out at 0%, the “ΔBP (change in arterial blood pressure)” value was 0% and the “ΔH (change in heart rate)” value turned out to be 0%. In data set [1], the “RI (recovery index)” value turned out to be 0.45 min and the Onset is 0.55 min. For the same molecule, in data set [2], the ED50 amounted to 0.25 mg/kg, the “VB (vagal block)” value is 30%, the “ΔBP (change in arterial blood pressure)” value was determined as 0% and the “ΔH (change in heart rate)” value is listed as 0%. In data set [2], the “RI (recovery index)” value was 1.3 min and the Onset was found to be 0.7 min. For the same molecule, in the data set with rabbits, the median effective dose (ED50) was determined as 0.4 mg/kg, the “ΔBP (change in arterial blood pressure)” value came out at 0%, the “ΔH (change in heart rate)” value is given as 0% and the “RI (recovery index)” value amounted to 0.4 min. The molecule also gave an Onset in the data set with rabbits of 0.45 min.

Regarding `COc1cc(C[N+]2(C)[C@@H]3CC[C@H]2C[C@@H](OC(=O)CCCCCCCCCC(=O)O[C@H]2C[C@H]4CC[C@@H](C2)[N+]4(C)Cc2cc(OC)c(OC(C)=O)c(OC)c2)C3)cc(OC)c1OC(C)=O.[Br-].[Br-]` (stereo partly drawn) [bis[N-(4-acetoxy-3,5-dimethoxybenzyl)tropanium-3α-yl]1,9-nonanedicarboxylate dibromide], in data set [1], the ED50 stood at 0.5 mg/kg, the “VB (vagal block)” value is listed as 99%, the “ΔBP (change in arterial blood pressure)” value was 0% and the “ΔH (change in heart rate)” value was 0%. Moreover, in data set [1], the “RI (recovery index)” value was 0.5 min and the Onset came out at 0.4 min. Further, in data set [2], the ED50 stood at 0.6 mg/kg, the “VB (vagal block)” value is 90%, the “ΔBP (change in arterial blood pressure)” value is given as 0% and the “ΔH (change in heart rate)” value was 0%. In addition, in data set [2], the “RI (recovery index)” value is 1.2 min and the Onset is 0.5 min. In addition, in the data set on rabbits, the ED50 is 0.5 mg/kg, the “ΔBP (change in arterial blood pressure)” value was 0%, the “ΔH (change in heart rate)” value is on record as 0% and the “RI (recovery index)” value was found to be 0.35 min. In the data set with rabbits, the Onset was 0.35 min.
